# Reference: US10336729B2, “4-cyano-benzyl carbamimidoylcarbamate derivatives and their use as AOC3 inhibitors” (Boehringer Ingelheim International GmbH, priority 2016, dated 2019)
# Molecular target: AOC3 (Homo sapiens (Human), UniProt Q16853)
# Experiment: MAO-Glo AOC3 assay
# Assay type: biochemical
# Details: recombinant CHO cells overexpressing AOC3 enzyme
# Description: The MAO-Glo™ Assay (commercial available from PROMEGA, #V1402) provides a sensitive method for the measurement of monoamine oxidase (MAO) activity (Valley, M. P. et al., 2006, Anal. Biochem. 359: 238-246) from a variety of tissues, biofluids or recombinant expressed or purified enzymes. As substrate a derivate of the beetle luciferin ((4S)-4,5-dihydro-2-(6-hydroxybenzothiazolyl)-4-thiazole-carboxylic acid) is used, which is oxidized at a primary amine moiety. After a spontaneous elimination and a catalyzed esterase reaction, the turnover of the luciferine by the luciferase is recorded as a signal of AOC3 activity.
# An aliquot of 3 μL of the compound dilution is added to a 384 well plate (Optiplate, PS, flat bottom, white, PERKIN ELMER, #6007290) with a final DMSO concentration of 6.6%. Recombinant CHO cells, overexpressing the human (1500 cells/well), mouse (1000 cells/well) or rat (500 cells/well) AOC3 enzyme are diluted in reaction buffer and added in a volume of 15 μL to the wells. After incubation for 20 minutes at 37° C., 2 μL of MAO substrate (dissolved in DMSO at 16 mM, adjusted to assay concentration in reaction buffer to a final assay concentration of 20 μM) is added and further incubated for 60 minutes at 37° C. The turnover of the substrate is determined by the addition of 20 μL of the detection-mix which was generated by the addition of reconstitution buffer with esterase (PROMEGA, #V1402) to the luciferine detection reagent (PROMEGA, #V1402). After an incubation period of 20 minutes, the luminescent signal is measured with Envision 2104 Multilabel Reader (PERKIN ELMER).
# AOC3, sequence (Q16853 whole entry): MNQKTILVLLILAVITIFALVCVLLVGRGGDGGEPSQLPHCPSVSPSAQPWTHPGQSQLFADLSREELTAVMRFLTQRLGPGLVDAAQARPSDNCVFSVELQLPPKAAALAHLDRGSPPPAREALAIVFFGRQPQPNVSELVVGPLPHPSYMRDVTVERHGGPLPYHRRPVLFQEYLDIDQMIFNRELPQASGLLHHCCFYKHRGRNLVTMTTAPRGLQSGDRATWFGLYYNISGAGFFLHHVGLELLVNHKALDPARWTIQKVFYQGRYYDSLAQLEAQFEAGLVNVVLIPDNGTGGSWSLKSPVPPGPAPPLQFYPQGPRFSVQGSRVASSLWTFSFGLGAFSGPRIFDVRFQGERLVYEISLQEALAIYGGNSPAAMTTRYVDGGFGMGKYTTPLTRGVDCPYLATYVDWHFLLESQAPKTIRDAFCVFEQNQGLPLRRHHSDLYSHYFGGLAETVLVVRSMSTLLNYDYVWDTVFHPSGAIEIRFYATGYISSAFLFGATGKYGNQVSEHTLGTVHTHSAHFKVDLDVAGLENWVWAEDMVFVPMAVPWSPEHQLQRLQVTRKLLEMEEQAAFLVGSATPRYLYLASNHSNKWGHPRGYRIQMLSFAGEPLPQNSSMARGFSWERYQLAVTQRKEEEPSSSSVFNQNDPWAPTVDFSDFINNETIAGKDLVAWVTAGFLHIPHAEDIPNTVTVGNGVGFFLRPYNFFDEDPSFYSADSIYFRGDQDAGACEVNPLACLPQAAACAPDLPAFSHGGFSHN
row,Structure (SMILES),IC50 [nM]
1,N#Cc1ccc(COC(=O)NC(=N)N)c(F)c1N1CCN(c2ccncn2)CC1 [Example 1.001],7
2,CS(=O)(=O)c1ccc(N2CCN(c3c(C#N)ccc(COC(=O)NC(=N)N)c3F)CC2)cc1 [Example 1.002],6
3,CC(=O)N1CCN(C2CCN(c3c(C#N)ccc(COC(=O)NC(=N)N)c3F)CC2)CC1 [Example 1.003],67
4,CS(=O)(=O)N1CCC(C2CN(c3c(C#N)ccc(COC(=O)NC(=N)N)c3F)C2)CC1 [Example 1.004],24
5,N#Cc1ccc(COC(=O)NC(=N)N)c(F)c1N1CCN(c2ccnnc2)CC1 [Example 1.006],5
6,N#Cc1ccc(COC(=O)NC(=N)N)c(F)c1N1CCN(c2cnccn2)CC1 [Example 1.007],10
7,CC(=O)N1CCC(N2CCN(c3c(C#N)ccc(COC(=O)NC(=N)N)c3F)CC2)CC1 [Example 1.008],397
8,N#Cc1ccc(N2CCN(c3c(C#N)ccc(COC(=O)NC(=N)N)c3F)CC2)cc1 [Example 1.009],3
9,CC(=O)N1CCC(C2CN(c3c(C#N)ccc(COC(=O)NC(=N)N)c3F)C2)CC1 [Example 1.010],25
10,N#Cc1ccc(COC(=O)NC(=N)N)c(F)c1N1CCCN(c2cccnc2)CC1 [Example 1.011],95
11,N#Cc1ccc(COC(=O)NC(=N)N)c(F)c1N1CCN(c2cccnc2)CC1 [Example 1.012],6
12,N#Cc1ccc(C2CN(c3c(C#N)ccc(COC(=O)NC(=N)N)c3F)C2)cc1 [Example 1.013],19
13,CC(=O)N1CCC(C2CCN(c3c(C#N)ccc(COC(=O)NC(=N)N)c3F)CC2)CC1 [Example 1.014],4
14,CC(=O)N[C@@H](C)c1ccc(C2CN(c3c(C#N)ccc(COC(=O)NC(=N)N)c3F)C2)cc1 [Example 1.015],19
15,CCOc1cc(C2CCN(c3c(C#N)ccc(COC(=O)NC(=N)N)c3F)CC2)ccn1 [Example 1.016],12
16,CS(=O)(=O)N1CCC(C2CCN(c3c(C#N)ccc(COC(=O)NC(=N)N)c3F)CC2)CC1 [Example 1.017],5
17,CN1CCN(C2CCN(c3c(C#N)ccc(COC(=O)NC(=N)N)c3F)CC2)CC1=O [Example 1.018],169
18,N#Cc1ccc(COC(=O)NC(=N)N)c(F)c1N1CCC(c2ccncc2)C1 (centres unmarked) [Example 1.019],17
19,COc1ncc(N2CCN(c3cc(COC(=O)NC(=N)N)cc(F)c3C#N)CC2)cn1 [Example 1.020],70
20,COc1cccc(N2CCN(c3c(C#N)ccc(COC(=O)NC(=N)N)c3F)CC2)c1 [Example 1.021],21
21,N#Cc1cccc(C2CCN(c3c(C#N)ccc(COC(=O)NC(=N)N)c3F)CC2)c1 [Example 1.022],5
22,N#Cc1ccc(COC(=O)NC(=N)N)c(F)c1N1CCC(N2CCC(C(N)=O)CC2)CC1 [Example 1.024],50
23,N#Cc1ccc(COC(=O)NC(=N)N)c(F)c1N1CCC(c2cn3ccccc3n2)CC1 [Example 1.025],5
24,CN(C)C(=O)c1ccc(N2CCN(c3c(C#N)ccc(COC(=O)NC(=N)N)c3F)CC2)cc1 [Example 1.026],70

row,Structure (SMILES),IC50 [nM]
1,COC(=O)N1CCC(C2CCN(c3c(C#N)ccc(COC(=O)NC(=N)N)c3F)CC2)CC1 [Example 1.027],4
2,N#Cc1ccc(COC(=O)NC(=N)N)c(F)c1N1CCN(c2cccc(F)c2)CC1 [Example 1.028],14
3,N#Cc1ccc(COC(=O)NC(=N)N)c(F)c1N1CCC(c2ccccc2)CC1 [Example 1.029],71
4,N#Cc1ccc(COC(=O)NC(=N)N)c(F)c1N1CCC(c2nccs2)CC1 [Example 1.030],65
5,N#Cc1ccc(COC(=O)NC(=N)N)c(F)c1N1CCC(c2ccc(F)cc2)CC1 [Example 1.031],70
6,COc1cnc(C2CCN(c3c(C#N)ccc(COC(=O)NC(=N)N)c3F)CC2)nc1 [Example 1.032],110
7,N#Cc1ccc(COC(=O)NC(=N)N)c(F)c1N1CC=C(c2ccc(F)cc2)CC1 [Example 1.033],24
8,N#Cc1ccc(COC(=O)NC(=N)N)c(F)c1N1CCC(c2ccc(C(=O)O)cc2)CC1 [Example 1.035],4
9,N#Cc1ccc(COC(=O)NC(=N)N)c(F)c1N1CCN(c2nccs2)CC1 [Example 1.036],27
10,N#Cc1ccc(COC(=O)NC(=N)N)c(F)c1N1CCC(c2ncc(Cl)cn2)CC1 [Example 1.037],54
11,N#Cc1ccc(COC(=O)NC(=N)N)c(F)c1N1CCN(C2CCOCC2)CC1 [Example 1.038],579
12,Cc1ccc(N2CCN(c3c(C#N)ccc(COC(=O)NC(=N)N)c3F)CC2)nc1 [Example 1.039],42
13,N#Cc1cccc(N2CCN(c3c(C#N)ccc(COC(=O)NC(=N)N)c3F)CC2)c1 [Example 1.040],2
14,Cc1ccc(N2CCN(c3c(C#N)ccc(COC(=O)NC(=N)N)c3F)CC2)cc1 [Example 1.041],177
15,CS(=O)(=O)c1ccc(N2CCN(c3c(C#N)ccc(COC(=O)NC(=N)N)c3F)CC2)c(F)c1 [Example 1.042],46
16,N#Cc1ccc(COC(=O)NC(=N)N)c(F)c1N1CC=C(c2ncco2)CC1 [Example 1.043],17
17,CN(C)Cc1ccc(C2CCN(c3c(C#N)ccc(COC(=O)NC(=N)N)c3F)CC2)cc1 [Example 1.044],10
18,N#Cc1ccc(N2CCN(c3c(C#N)ccc(COC(=O)NC(=N)N)c3F)CC2)c(F)c1 [Example 1.045],29
19,N#Cc1ccc(COC(=O)NC(=N)N)c(F)c1N1CC=C(c2ccccc2)CC1 [Example 1.046],27
20,Cc1cccc(C2CCN(c3c(C#N)ccc(COC(=O)NC(=N)N)c3F)CC2)c1 [Example 1.047],65
21,COc1ccc(C2CCN(c3c(C#N)ccc(COC(=O)NC(=N)N)c3F)CC2)cc1 [Example 1.048],82
22,N#Cc1ccc(COC(=O)NC(=N)N)c(F)c1N1CCC(c2ccc(Cl)cc2)CC1 [Example 1.049],102
23,N#Cc1ccc(COC(=O)NC(=N)N)c(F)c1N1CCN(c2ccc(F)cc2)C(=O)C1 [Example 1.050],5
24,N#Cc1ccc(COC(=O)NC(=N)N)c(F)c1N1CCN(c2ccccn2)CC1 [Example 1.051],271

row,Structure (SMILES),IC50 [nM]
1,Cc1cc(C)cc(N2CCN(c3c(C#N)ccc(COC(=O)NC(=N)N)c3F)CC2)c1 [Example 1.052],146
2,N#Cc1ccc(COC(=O)NC(=N)N)c(F)c1N1CCN(C2CCCC2)C(=O)C1 [Example 1.053],15
3,N#Cc1ccc(COC(=O)NC(=N)N)c(F)c1N1CCC(C2CCOCC2)CC1 [Example 1.054],20
4,N#Cc1ccc(N2CCN(c3c(C#N)ccc(COC(=O)NC(=N)N)c3F)CC2)nc1 [Example 1.055],115
5,COc1cnc(N2CCN(c3c(C#N)ccc(COC(=O)NC(=N)N)c3F)CC2)nc1 [Example 1.056],15
6,N#Cc1ccc(COC(=O)NC(=N)N)c(F)c1N1CC=C(c2ccc(Cl)cc2)CC1 [Example 1.057],6
7,N#Cc1ccc(COC(=O)NC(=N)N)c(F)c1N1CCN(c2ccc(C(N)=O)cc2)CC1 [Example 1.058],71
8,N#Cc1ccc(COC(=O)NC(=N)N)c(F)c1N1CCN(c2ccccc2F)CC1 [Example 1.059],151
9,CCc1ccc(N2CCN(c3c(C#N)ccc(COC(=O)NC(=N)N)c3F)CC2)cc1 [Example 1.060],334
10,COc1cccc(C2=CCN(c3c(C#N)ccc(COC(=O)NC(=N)N)c3F)CC2)c1 [Example 1.061],30
11,CN1CCN(C2CCN(c3c(C#N)ccc(COC(=O)NC(=N)N)c3F)CC2)C(=O)C1 [Example 1.062],696
12,N#Cc1ccc(COC(=O)NC(=N)N)c(F)c1N1CC=C(c2ncccn2)CC1 [Example 1.063],34
13,CN(C)c1ccc(N2CCN(c3c(C#N)ccc(COC(=O)NC(=N)N)c3F)CC2)nn1 [Example 1.064],33
14,N#Cc1ccc(COC(=O)NC(=N)N)c(F)c1N1CCN(c2ccccc2)C(=O)C1 [Example 1.065],131
15,Cc1cccc(N2CCN(c3c(C#N)ccc(COC(=O)NC(=N)N)c3F)CC2)c1 [Example 1.066],20
16,COc1cnc(C2=CCN(c3c(C#N)ccc(COC(=O)NC(=N)N)c3F)CC2)nc1 [Example 1.067],77
17,Cc1ccc(N2CCN(c3c(C#N)ccc(COC(=O)NC(=N)N)c3F)CC2)nn1 [Example 1.068],55
18,N#Cc1ccc(COC(=O)NC(=N)N)c(F)c1N1CCN(c2ncc(F)cn2)CC1 [Example 1.069],27
19,CC1CN(c2c(C#N)ccc(COC(=O)NC(=N)N)c2F)CCN1c1ccccc1 (centres unmarked) [Example 1.070],64
20,Cc1cnc(C2=CCN(c3c(C#N)ccc(COC(=O)NC(=N)N)c3F)CC2)o1 [Example 1.071],12
21,Cc1ccc(C2CCN(c3c(C#N)ccc(COC(=O)NC(=N)N)c3F)CC2)cc1 [Example 1.072],211
22,N#Cc1ccc(COC(=O)NC(=N)N)c(F)c1N1CCN(c2ccc(C(F)(F)F)cc2)CC1 [Example 1.073],103
23,COc1ccc(N2CCN(c3c(C#N)ccc(COC(=O)NC(=N)N)c3F)CC2)cc1 [Example 1.074],128
